The numbers were not newly measured in patent publication US6063383A, “Pharmaceutical suppository composites for fever and influenza and method of producing the composites” (priority 1999, dated 2000), which cites them from elsewhere.

The subject of the data set is small rats. To be noted: rat, in vivo.

`NCCS(=O)(=O)O` [taurine]: the “spontaneous and pedaling activities” value was “can reduce the combined action of spontaneous activities and pedaling activities”.
